We go through 12 compounds from ChEMBL document CHEMBL3244191, “Study of the structural requirements for dopa potentiation and oxotremorine antagonism by L-prolyl-L-leucylglycinamide” (J Med Chem, 1978).

Common to all, as to type: functional, organism-based
The subject of assay [1] is Mus musculus. Nature of the assay: Suppression of oxotremorine-induced tremor in ICR mouse at 20 mg/kg, ip pretreated for 1 hr followed by oxotremorine-challenge. Further details: dose 20 mg/kg.
Assay [2] relates to Mus musculus. Nature of the assay: Suppression of oxotremorine-induced tremor in ICR mouse at 10 mg/kg, ip pretreated for 1 hr followed by oxotremorine-challenge. Also on record: dose 10 mg/kg.
Assay [3] has as its system Mus musculus. The experiment in a line: Potentiation of dl-DOPA-induced behavioral effects in ICR mouse assessed as slight piloerection, slight salivation and slight increased motor activity at 10 mg/kg, ip administered 1 hr prior to dl-DOPA-challenge measured for 1 hr. Also on record: dose 10 mg/kg.
Assay [4] concerns Mus musculus. The experiment in a line: Potentiation of dl-DOPA-induced behavioral effects in ICR mouse assessed as slight piloerection, slight salivation and slight increased motor activity at 2.5 mg/kg, ip administered 1 hr prior to dl-DOPA-challenge measured for 1 hr. Further details: dose 2.5 mg/kg.
For assay [5], the system named is Mus musculus. The experiment in a line: Potentiation of dl-DOPA-induced behavioral effects in ICR mouse assessed as moderate piloerection, salivation, marked increased motor activity and irritability at 10 mg/kg, ip administered 1 hr prior to dl-DOPA-challenge measured for 1 hr. Also on record: dose 10 mg/kg.
Assay [6] relates to Mus musculus. The experiment in a line: Potentiation of dl-DOPA-induced behavioral effects in ICR mouse assessed as moderate piloerection, salivation, marked increased motor activity and irritability at 2.5 mg/kg, ip administered 1 hr prior to dl-DOPA-challenge measured for 1 hr. Also on record: dose 2.5 mg/kg.
The subject of assay [7] is Mus musculus. Nature of the assay: Potentiation of dl-DOPA-induced behavioral effects in ICR mouse assessed as marked piloerection, profuse salivation, marked increased irritability and reactivity, jumping, squeaking and aggressive fighting at 1 mg/kg, ip administered 1 hr prior to dl-DOPA-challenge measured for 1 hr. Also on record: dose 1 mg/kg.
Assay [8] relates to Mus musculus. The experiment in a line: Potentiation of dl-DOPA-induced behavioral effects in ICR mouse assessed as marked piloerection, profuse salivation, marked increased irritability and reactivity, jumping, squeaking and aggressive fighting at 10 mg/kg, ip administered 1 hr prior to dl-DOPA-challenge measured for 1 hr. Also on record: dose 10 mg/kg.
Assay [9] concerns Mus musculus. Nature of the assay: Suppression of oxotremorine-induced tremor in ICR mouse at 1 mg/kg, ip pretreated for 1 hr followed by oxotremorine-challenge. Further details: dose 1 mg/kg.
For assay [10], the system named is Mus musculus. Nature of the assay: Potentiation of dl-DOPA-induced behavioral effects in ICR mouse assessed as marked piloerection, profuse salivation, marked increased irritability and reactivity, jumping, squeaking and aggressive fighting at 0.1 mg/kg, ip administered 1 hr prior to dl-DOPA-challenge measured for 1 hr. Also on record: dose 0.1 mg/kg.
The subject of assay [11] is Mus musculus. Nature of the assay: Suppression of oxotremorine-induced tremor in ICR mouse at 4 mg/kg, ip pretreated for 1 hr followed by oxotremorine-challenge. Further details: dose 4 mg/kg.

The structures appear in SMILES notation. Active and inactive are the calls of the source. The calls are words filed in the database; no cut-off is given here. Square brackets hold non-standard residues; d marks the D form. Peptide text beside a SMILES is read from it. azaGly = NNC(=O)O; βAla = NCCC(=O)O

On to `CC(C)C[C@H](NC(=O)[C@H]1CSCN1)C(=O)NCC(N)=O`, for which the result in the assay with Mus musculus [1] and in the assay on Mus musculus [2] was inactive. Further, in the assay on Mus musculus [3], the result was Active.

As for `CC(C)C[C@H](NC(=O)[C@@H]1CCCN1)C(=O)N1CCSC1C(N)=O` (stereo in doubt; 9), the result in the assay on Mus musculus [1] was inactive. In addition, the result with Mus musculus [3] was Active.

For `CC(C)C[C@H](NC(=O)[C@@H]1CCCN1)C(=O)NNC(N)=O` (H-Pro-Leu-[azaGly]-NH2), in the assay on Mus musculus [1], the result was inactive. For the same compound, the result in the assay on Mus musculus [3] was Active.

Consider `CC(C)C[C@H](NC(=O)C1CCCC1)C(=O)NCC(N)=O`, for which the result in the assay on Mus musculus [1] was inactive. For the same compound, the outcome with Mus musculus [4] and in the assay with Mus musculus [5] was Active.

As for `CC(C)C[C@H](NC(=O)[C@@H]1CCCN1)C(=O)NCCC(N)=O` (H-Pro-Leu-[βAla]-NH2), the outcome with Mus musculus [1] was inactive. Moreover, in the assay with Mus musculus [3], the outcome was Active.

Consider `CC(=O)CNC(=O)[C@H](CC(C)C)NC(=O)[C@@H]1CCCN1`, for which, in the assay with Mus musculus [1], the result was inactive. The outcome with Mus musculus [5] and in the assay with Mus musculus [6] was Active.

As for `CNC(=O)CNC(=O)[C@H](CC(C)C)NC(=O)[C@@H]1CCCN1` (H-Pro-Leu-Gly-NHMe), the result in the assay on Mus musculus [1] was inactive. Also, the result with Mus musculus [3] was Active.

Regarding `CC(C)C[C@H](NC(=O)[C@@H]1CCCN1)C(=O)N1CCSC1C(N)=O` (single isomer, unassigned; (-)), in the assay with Mus musculus [1], the outcome was inactive. In addition, the outcome in the assay with Mus musculus [4] and with Mus musculus [5] was Active.

`CC(C)C[C@H](NC(=O)[C@@H]1CCCN1)C(=O)NCC#N`: the outcome in the assay on Mus musculus [1] was inactive. For the same compound, the outcome in the assay on Mus musculus [4] and in the assay with Mus musculus [5] was Active.

Regarding `CC(C)C[C@H](NC(=O)[C@@H]1CCCN1)C(=O)N1CCC[C@H]1C(N)=O` (H-Pro-Leu-Pro-NH2), the result in the assay with Mus musculus [1] and in the assay with Mus musculus [3] was Active. Moreover, the result in the assay on Mus musculus [2] was inactive.

Consider `CC(C)C[C@H](NC(=O)[C@@H]1CCCN1)C(=O)N1CSC[C@@H]1C(N)=O`, for which, in the assay on Mus musculus [1], the result was inactive. For the same compound, in the assay with Mus musculus [3], the outcome was Active.

For `CC(C)C[C@H](NC(=O)[C@@H]1CCCN1)C(=O)NCC(N)=O` (H-Pro-Leu-Gly-NH2), the outcome in the assay with Mus musculus [7], in the assay on Mus musculus [8], with Mus musculus [1], in the assay on Mus musculus [10] and in the assay on Mus musculus [11] was Active. The outcome in the assay on Mus musculus [9] was inactive.
